Test results published in patent publication US9522935B2, “Commands and method of treating cancer via RHO pathway” (priority 2013, dated 2016).

Experiments:
[1] = system: non-small lung cancer cell line A549; experiment: MTT assay, compounds related to LD030 on A549 cells; assay type: cell-based; details: for Effects on A549 Cells (inhibitory percentage) / inhibition at 0.1 µM / inhibition at 1 µM / inhibition at 10 µM / inhibition at 100 µM: 48 hours; for inhibition at 0.1 µM / inhibition at 1 µM / inhibition at 10 µM / inhibition at 100 µM: Homo sapiens, A549, read-out: Effects on A549 Cells (inhibitory percentage)
Description: (§1) MTT assay was used to detect cell viability after being treated with different compounds of the present invention related to LD030. The cell lines treated were on non-small lung cancer cell line A549, HepG2 cells and Panc1 cells.
(§2) MTT preservation solution preparation: 0.5 g MTT was dissolved in 100 ml of phosphate buffer solution (PBS), and bacteria contaminates were removed with a 0.22 μm membrane filter to obtain 0.5% MTT solution, which was stored in the dark at −20° C.
(§3) MTT working solution preparation: MTT preservation solution was diluted 10 times with sterile PBS to obtain MTT working solution.
(§4) 1640 complete medium preparation: 1640 base medium was added with an amount of fetal bovine serum (FBS) so that the medium contains 10% FBS by volume. Then an amount of double-antibody (i.e., penicillin and streptomycin) was added to make final concentration of penicillin at 100 units/ml and streptomycin at 100 ug/ml.
(§5) The experimental procedure is as follows:
(§6) (1) Take trypsin digested logarithmic phase cells and adjust the concentration of the cell suspension to 6×10^4 cell/ml, and then add 100 ul suspension of the cells under the test to each well on a 96-well plate and adjusted to a density of 6000 cells/well. The edge orifice is filled with sterile PBS.
(§7) (2) Placed the 96-well plate into a 37° C. incubator with 5% CO2 and incubate it overnight.
(§8) (3) Dissolve the test compounds in 200 ul DMSO to get a 5 mg/ml solution and dilute it to get 100 uM, 10 uM, 1 uM and 0.1 uM solutions. Add 100 ul of a solution to each of three repeat wells. Set a control well which has cells but without the compound of the present invention and a blank cell which contains no cells.
(§9) (4) Put the 96-well plate into a 37° C. incubator with 5% CO2 and incubate it for 48 hours. Examine the cells daily under a microscope.
(§10) (5) After being cultured for 48 hours, centrifuge and discard the culture liquid. Add 100 ul MTT working solution to each well, and continue incubating for 4 h.
(§11) (6) Terminate the culture, and carefully remove the culture medium. Then add 100 ul DMSO to each well and shake it at a low speed in a shaker for 10 min to make all crystals fully dissolved. The absorbance value of each well was measured by an enzyme-linked immunosorbent detector at the OD570 nm, and the inhibition rate of the different compounds with different concentration on cell growth can be obtained.

HepG2 cells = experiment: MTT assay, compounds related to LD030 on HepG2 cells; assay type: cell-based, human; details: 48 hours; for inhibition at 0.1 µM / inhibition at 1 µM / inhibition at 10 µM / inhibition at 100 µM: Homo sapiens, HepG2, read-out: Effects on HepG2 Cells (inhibitory percentage)
Description: as §1, §2, §3, §4, §5, §6, §7, §8, §9, §10, §11

Panc1 cells = experiment: MTT assay, compounds related to LD030 on Panc1 cells; assay type: cell-based, human; details: 48 hours; for inhibition at 0.1 µM / inhibition at 1 µM / inhibition at 10 µM / inhibition at 100 µM: Homo sapiens, PANC-1, read-out: Effects on Panc1 Cells (inhibitory percentage)
Description: as §1, §2, §3, §4, §5, §6, §7, §8, §9, §10, §11

[2] = system: pancreatic cancer cell lines; experiment: Nude mouse model of pancreatic cancer (xenograft), tumor size; assay type: in vivo, NOD/SCID mice; details: 43 days
Description: Two strains of pancreatic cancer cell lines were selected to be grafted to nonobese diabetic/severe combined immunodeficient (NOD/SCID) mice, and the tumor was inoculated in mouse ventral sides. About two weeks, they were used as a nude mouse model of pancreatic cancer. […] Each of the above groups. The treatment continued for 43 days (gemcitabine alone group 2 times a week; other groups 3 times a week), and then tumor size was recorded as shown in FIG. 16. […] Further experiments were conducted to study the effects of the combinational use of LD030 with gemcitabine as compared being used alone on tumor inhibition. Four treatment groups were set up: (a) blank control, (2) gemcitabine (25 mg/kg/time, 2 times a week), (3) LD030 (0.5 mg/kg/time, 3 times a week), (4) LD030 (0.5 mg/kg/time, 3 times a week) together with gemcitabine (25 mg/kg/time, 2 times a week).

| SMILES | inhibition at 0.1 µM ([1]; 0.1 μM) | inhibition at 1 µM ([1]; 1 μM) | inhibition at 10 µM ([1]; 10 μM) | inhibition at 100 µM ([1]; 100 μM) | inhibition at 0.1 µM (Panc1 cells; 0.1 μM) | inhibition at 1 µM (Panc1 cells; 1 μM) | inhibition at 10 µM (Panc1 cells; 10 μM) | inhibition at 100 µM (Panc1 cells; 100 μM) | inhibition at 0.1 µM (HepG2 cells; 0.1 μM) | inhibition at 1 µM (HepG2 cells; 1 μM) | inhibition at 10 µM (HepG2 cells; 10 μM) | inhibition at 100 µM (HepG2 cells; 100 μM) | further results |
| --- | --- | --- | --- | --- | --- | --- | --- | --- | --- | --- | --- | --- | --- |
| CC(=O)OC(CCC(C)C1CC[C@@]2(C)C34CC[C@H]5C(C)(C)[C@@H](OC(C)=O)CC[C@]5(C)C3(CC[C@]12C)O4)C(C)(C)OC(C)=O (some centres unmarked) [LD023] |  |  |  |  |  |  |  |  |  |  |  |  | Effects on A549 Cells (inhibitory percentage) ([1]; 0.1 μM): 8.01%; Effects on A549 Cells (inhibitory percentage) ([1]; 1 μM): 8.30%; Effects on A549 Cells (inhibitory percentage) ([1]; 10 μM): 6.11%; Effects on A549 Cells (inhibitory percentage) ([1]; 100 μM): 12.70%; Effects on HepG2 Cells (inhibitory percentage) (HepG2 cells; 0.1 μM): 26.53%; Effects on HepG2 Cells (inhibitory percentage) (HepG2 cells; 1 μM): 27.64%; Effects on HepG2 Cells (inhibitory percentage) (HepG2 cells; 10 μM): 19.13%; Effects on HepG2 Cells (inhibitory percentage) (HepG2 cells; 100 μM): 23.00%; Effects on Panc1 Cells (inhibitory percentage) (Panc1 cells; 0.1 μM): −5.92%; Effects on Panc1 Cells (inhibitory percentage) (Panc1 cells; 1 μM): −1.12%; Effects on Panc1 Cells (inhibitory percentage) (Panc1 cells; 10 μM): −2.56%; Effects on Panc1 Cells (inhibitory percentage) (Panc1 cells; 100 μM): 25.26% |
| CC(=O)O[C@H]1CC[C@@]2(C)[C@@H](CCC34OC32CC[C@]2(C)C(C(C)CCC(O)C(C)(C)O)CC[C@@]42C)C1(C)C (some centres unmarked) [LD027] | -1.4% | -4.98% | 12.9% | 58.6% | 2.21% | 10.1% | 16.7% | 28.7% |  |  |  |  |  |
| CC(C)=CCC[C@@H](C)[C@H]1CC[C@@]2(C)C3=C(CC[C@]12C)[C@@]1(C)CCC(=O)C(C)(C)[C@@H]1CC3 [LD 012] |  |  |  |  |  |  |  |  |  |  |  |  | Effects on A549 Cells (inhibitory percentage) ([1]; 0.1 μM): 1.31%; Effects on A549 Cells (inhibitory percentage) ([1]; 1 μM): 28.04%; Effects on A549 Cells (inhibitory percentage) ([1]; 10 μM): 39.34%; Effects on A549 Cells (inhibitory percentage) ([1]; 100 μM): 91.76%; inhibition rate on A549 ([1]; concentration not given): more than 90%; Effects on HepG2 Cells (inhibitory percentage) (HepG2 cells; 0.1 μM): 10.53%; Effects on HepG2 Cells (inhibitory percentage) (HepG2 cells; 1 μM): −15.82%; Effects on HepG2 Cells (inhibitory percentage) (HepG2 cells; 10 μM): −1.79%; Effects on HepG2 Cells (inhibitory percentage) (HepG2 cells; 100 μM): 47.72%; Effects on Panc1 Cells (inhibitory percentage) (Panc1 cells; 0.1 μM): 5.68%; Effects on Panc1 Cells (inhibitory percentage) (Panc1 cells; 1 μM): 5.68%; Effects on Panc1 Cells (inhibitory percentage) (Panc1 cells; 10 μM): 10.20%; Effects on Panc1 Cells (inhibitory percentage) (Panc1 cells; 100 μM): 39.54% |
| CC(=O)OC(CCC(C)C1CC[C@@]2(C)C3=C(CC[C@]12C)[C@@]1(C)CCC(=O)C(C)(C)[C@@H]1CC3)C(C)(C)OC(C)=O (some centres unmarked) [LD 014] | 21.3% | 9.46% | 3.02% | 34.6% | -5.26% | -3.05% | 3.89% | 24.1% | 0.64% | -20.7% | 2.93% | 61.4% |  |
| CC(=O)O[C@H]1CC[C@]2(C)C3=C(CC[C@H]2C1(C)C)[C@]1(C)CCC(C(C)CCC(O)C(C)(C)O)[C@@]1(C)CC3 (some centres unmarked) [LD 021] | 3.13% | 1.31% | 1.53% | 45.5% | -12.6% | -4.96% | 2.16% | 48.8% | 12.7% | 13.1% | 12.7% | 24.6% |  |
| CC(=O)OC(CCC(C)C1CC[C@@]2(C)C3=C(CC[C@]12C)[C@@]1(C)CC[C@H](OC(C)=O)C(C)(C)[C@@H]1CC3)C(C)(C)OC(C)=O (some centres unmarked) [LD 022] |  |  |  |  |  |  |  |  |  |  |  |  | Effects on A549 Cells (inhibitory percentage) ([1]; 0.1 μM): 4.73%; Effects on A549 Cells (inhibitory percentage) ([1]; 1 μM): 8.99%; Effects on A549 Cells (inhibitory percentage) ([1]; 10 μM): 6.92%; Effects on A549 Cells (inhibitory percentage) ([1]; 100 μM): 35.89%; Effects on HepG2 Cells (inhibitory percentage) (HepG2 cells; 0.1 μM): 20.67%; Effects on HepG2 Cells (inhibitory percentage) (HepG2 cells; 1 μM): 31.18%; Effects on HepG2 Cells (inhibitory percentage) (HepG2 cells; 10 μM): 24.88%; Effects on HepG2 Cells (inhibitory percentage) (HepG2 cells; 100 μM): 24.54%; Effects on Panc1 Cells (inhibitory percentage) (Panc1 cells; 0.1 μM): −6.95%; Effects on Panc1 Cells (inhibitory percentage) (Panc1 cells; 1 μM): −5.28%; Effects on Panc1 Cells (inhibitory percentage) (Panc1 cells; 10 μM): −2.48%; Effects on Panc1 Cells (inhibitory percentage) (Panc1 cells; 100 μM): −6.24% |
| CC(CCC(O)C(C)(C)O)C1CC[C@@]2(C)C34CC[C@H]5C(C)(C)[C@@H](O)CC[C@]5(C)C3(CC[C@]12C)O4 (some centres unmarked) [LD 024] | 1.38% | 6.04% | -0.22% | 34.6% | -7.19% | -8.39% | -13% | 6.95% | 22% | 14.3% | 5.86% | 2.1% |  |
| CC(CCC(=O)C(C)(C)O)C1CC[C@@]2(C)C34CC[C@H]5C(C)(C)C(=O)CC[C@]5(C)C3(CC[C@]12C)O4 (some centres unmarked) [LD 025] | 25.2% | 1.71% | 0.51% | 16.9% | -16.5% | -12.8% | -9.57% | -16% | -1.15% | -19.1% | -1.79% | 20.5% |  |
| CC(=O)O[C@H]1CC[C@]2(C)C3=C(CC[C@H]2C1(C)C)[C@]1(C)CCC(C(C)CCC2OC2(C)C)[C@@]1(C)CC3 (some centres unmarked) [LD 026-1] | 21.8% | 6.66% | 8.3% | 39.8% | -2.84% | 9.46% | 8.83% | 34.4% | -3.32% | -0.13% | 12.7% | 58.1% |  |
| CC(=O)O[C@H]1CC[C@@]2(C)[C@@H](CCC34OC32CC[C@]2(C)C(C(C)CCC3OC3(C)C)CC[C@@]42C)C1(C)C (some centres unmarked) [LD 026-2] | 2.51% | 6.88% | -2.33% | 33% | 8.79% | 7.59% | 14.6% | 21.5% | 20.3% | 32.8% | 20.8% | 33.9% |  |
| CC(=O)O[C@H]1CC[C@]2(C)C3CC[C@]4(C)C(C(C)CCC(O)C(C)(C)O)CC[C@@]4(C)C3CC[C@H]2C1(C)C (some centres unmarked) [LD 028] | 3.24% | 10% | -1.75% | 29.2% | -9.19% | -0.48% | -0.4% | 0.16% | 29.4% | 37.4% | 67.8% | 45.8% |  |
| Nc1ccn([C@@H]2O[C@H](CO)[C@@H](O)C2(F)F)c(=O)n1 [gemcitabine, reference compound] |  |  |  |  |  |  |  |  |  |  |  |  | tumor volume reduced ([2]; 25 mg/kg/time gemcitabine, FIG. 15): 37%; tumor size reduced ([2]; gemcitabine 25 mg/kg/time, 2 times a week, FIG. 17): 37% |
